# Source: ChEMBL document CHEMBL4130359, “Indazole-based ligands for estrogen-related receptor α as potential anti-diabetic agents” (Eur J Med Chem, 2017)
# Calls of active or inactive are those of the source. The rule behind the calls is not given here.
# Legend:
# [1] = AUC (0 to 24 hrs) in Zucker rat sub-chronic fa/fa prediabetic model at 1 mg/kg, po qd measured on day 1 post dose; assay type: ADME, organism-based; design: time < 24 hr, dose 1 mg/kg, route oral; settings: in vivo
# [2] = system: Rattus norvegicus; assay: Toxicity in Zucker rat sub-chronic fa/fa prediabetic model assessed as serum cholesterol level at 10 mg/kg, po qd for 31 days measured on day 32 (reference value: 295 +/- 91 mg/dl); assay type: organism-based; settings: in vivo, 744 h
# [3] = Tmax in CD-1 mouse at 20 mg/kg administered via oral gavage by LC-MS analysis; assay type: ADME, organism-based; settings: in vivo
# [4] = molecular target: Sodium channel protein type 2 subunit alpha (Homo sapiens) (UniProt Q99250); assay: Activity at human Nav1.2 expressed in CHOK1 cells assessed as effect on channel current up to 10 uM by patch clamp method; assay type: cell-based
# Sodium channel protein type 2 subunit alpha (Homo sapiens), sequence (Q99250 whole entry, looked up, the tested form may be a part): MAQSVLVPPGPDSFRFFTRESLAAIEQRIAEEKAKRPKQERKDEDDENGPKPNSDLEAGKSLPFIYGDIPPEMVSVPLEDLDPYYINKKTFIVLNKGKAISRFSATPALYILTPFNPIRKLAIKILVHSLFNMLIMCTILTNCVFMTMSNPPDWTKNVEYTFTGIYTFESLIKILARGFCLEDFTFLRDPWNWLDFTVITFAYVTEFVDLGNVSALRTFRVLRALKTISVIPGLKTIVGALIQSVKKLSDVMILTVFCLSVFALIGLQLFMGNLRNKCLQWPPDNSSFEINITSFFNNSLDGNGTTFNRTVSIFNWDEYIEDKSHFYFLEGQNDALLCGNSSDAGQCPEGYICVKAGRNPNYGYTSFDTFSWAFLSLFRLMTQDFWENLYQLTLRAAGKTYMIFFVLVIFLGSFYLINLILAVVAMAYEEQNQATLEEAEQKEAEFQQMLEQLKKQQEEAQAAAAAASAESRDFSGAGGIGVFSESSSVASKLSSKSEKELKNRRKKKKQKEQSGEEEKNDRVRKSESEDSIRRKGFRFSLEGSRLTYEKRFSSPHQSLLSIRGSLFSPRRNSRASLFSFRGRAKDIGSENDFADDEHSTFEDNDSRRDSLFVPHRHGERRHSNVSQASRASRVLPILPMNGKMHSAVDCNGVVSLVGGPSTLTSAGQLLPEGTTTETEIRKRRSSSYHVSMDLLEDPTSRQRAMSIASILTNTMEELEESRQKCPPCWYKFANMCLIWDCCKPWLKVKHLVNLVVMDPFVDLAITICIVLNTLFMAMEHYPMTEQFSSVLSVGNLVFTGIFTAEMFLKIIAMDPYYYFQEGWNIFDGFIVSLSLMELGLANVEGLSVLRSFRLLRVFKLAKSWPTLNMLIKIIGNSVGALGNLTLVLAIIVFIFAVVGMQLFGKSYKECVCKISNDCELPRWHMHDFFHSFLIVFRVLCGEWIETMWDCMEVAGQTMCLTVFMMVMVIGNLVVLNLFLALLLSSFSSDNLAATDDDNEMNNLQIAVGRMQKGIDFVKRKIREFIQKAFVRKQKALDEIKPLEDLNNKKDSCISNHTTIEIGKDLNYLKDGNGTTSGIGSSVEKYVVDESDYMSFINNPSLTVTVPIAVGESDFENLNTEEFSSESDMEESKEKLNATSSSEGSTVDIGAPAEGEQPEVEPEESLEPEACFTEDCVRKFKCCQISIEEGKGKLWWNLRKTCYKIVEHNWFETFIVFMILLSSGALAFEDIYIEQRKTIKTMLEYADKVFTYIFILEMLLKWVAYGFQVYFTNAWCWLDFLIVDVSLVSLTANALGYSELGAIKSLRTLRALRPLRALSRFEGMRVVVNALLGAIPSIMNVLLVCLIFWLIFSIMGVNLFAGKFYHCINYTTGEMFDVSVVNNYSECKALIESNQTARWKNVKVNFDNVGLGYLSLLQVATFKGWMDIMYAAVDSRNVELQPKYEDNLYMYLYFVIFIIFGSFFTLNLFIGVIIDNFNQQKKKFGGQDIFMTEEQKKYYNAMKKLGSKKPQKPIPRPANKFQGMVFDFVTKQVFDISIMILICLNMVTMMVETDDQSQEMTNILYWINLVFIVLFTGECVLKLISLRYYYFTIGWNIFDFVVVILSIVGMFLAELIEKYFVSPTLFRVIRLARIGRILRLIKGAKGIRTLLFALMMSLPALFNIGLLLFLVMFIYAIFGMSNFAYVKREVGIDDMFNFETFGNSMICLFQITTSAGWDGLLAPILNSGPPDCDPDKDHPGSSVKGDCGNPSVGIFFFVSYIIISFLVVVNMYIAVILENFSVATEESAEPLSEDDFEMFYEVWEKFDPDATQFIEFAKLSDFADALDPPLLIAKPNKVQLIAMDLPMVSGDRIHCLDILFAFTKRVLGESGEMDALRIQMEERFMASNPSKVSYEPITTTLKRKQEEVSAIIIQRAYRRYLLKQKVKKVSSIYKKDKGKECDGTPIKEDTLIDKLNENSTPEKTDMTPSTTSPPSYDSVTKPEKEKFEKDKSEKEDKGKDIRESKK
# [5] = molecular target: Retinoic acid receptor RXR-beta (Homo sapiens, UniProt P28702); assay: Antagonist activity at recombinant GST-tagged human RXRbeta LBD assessed as inhibition of all-trans-retinoic acid-induced fluorescein-labeled coactivator peptide recruitment preincubated with enzyme followed by coactivator addition by LanthaScreen TR-FRET assay
# Retinoic acid receptor RXR-beta, sequence (P28702 whole entry, the tested form may be a part): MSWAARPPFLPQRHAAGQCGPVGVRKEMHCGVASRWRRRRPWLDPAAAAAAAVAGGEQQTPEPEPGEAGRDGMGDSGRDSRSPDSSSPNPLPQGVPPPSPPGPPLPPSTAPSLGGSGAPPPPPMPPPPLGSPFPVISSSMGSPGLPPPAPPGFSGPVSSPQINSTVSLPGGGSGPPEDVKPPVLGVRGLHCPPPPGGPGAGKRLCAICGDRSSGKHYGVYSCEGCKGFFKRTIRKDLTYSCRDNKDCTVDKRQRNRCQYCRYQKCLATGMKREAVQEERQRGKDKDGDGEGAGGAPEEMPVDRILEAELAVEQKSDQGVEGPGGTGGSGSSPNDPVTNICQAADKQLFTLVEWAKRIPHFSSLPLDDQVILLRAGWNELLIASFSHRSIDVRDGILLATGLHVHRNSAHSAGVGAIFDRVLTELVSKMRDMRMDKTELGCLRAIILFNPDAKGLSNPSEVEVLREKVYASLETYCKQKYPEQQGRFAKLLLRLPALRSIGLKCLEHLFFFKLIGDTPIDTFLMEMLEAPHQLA
# [6] = Cmax in Zucker rat sub-chronic fa/fa prediabetic model at 50 mg/kg, po qd for 26 days measured on day 26 post last dose; assay type: ADME, organism-based; design: dose 50 mg/kg, route oral; settings: in vivo
# [7] = system: Rattus norvegicus; assay: Toxicity in Zucker rat sub-chronic fa/fa prediabetic model assessed as insulin level per gram pancreas at 50 mg/kg, po qd for 31 days measured on day 32 (reference value: 55.2 +/- 5.5 ug); assay type: organism-based; settings: in vivo, 744 h
# [8] = system: Rattus norvegicus; assay: Effect on MED24 gene expression in epididymal white adipose tissue of Zucker rat sub-chronic fa/fa prediabetic model at 10 mg/kg, po qd for 15 days by microarray analysis relative to control; assay type: functional
# [9] = system: Rattus norvegicus; assay: Toxicity in Zucker rat sub-chronic fa/fa prediabetic model assessed as serum AST level at 3 mg/kg, po qd for 31 days measured on day 32 (reference value: 187 +/- 37 U/L); assay type: organism-based; settings: in vivo, 744 h
# [10] = system: Rattus norvegicus; assay: Toxicity in […] chronic ob/ob model assessed as body weight at 3 mg/kg, po qd for 28 days measured on day 28 post last dose (reference value: 47.3 +/- 1.06 g); assay type: organism-based; settings: in vivo, 672 h
# [11] = system: Rattus norvegicus; assay: Effect on ATP5C1 gene expression in epididymal white adipose tissue of Zucker rat sub-chronic fa/fa prediabetic model at 10 mg/kg, po qd for 15 days by microarray analysis relative to control; assay type: functional
# [12] = organism: Cavia porcellus; assay: Inhibition of veratridine binding to Dunkin Hartley guinea pig atria sodium channel site 2 (unknown origin) at 10 uM relative to control
# [13] = system: Rattus norvegicus; assay: Antidiabetic activity in Zucker rat sub-chronic fa/fa prediabetic model assessed as fasting blood glucose level at 1 mg/kg, po qd for 31 days measured on day 29 post dose (reference value: 163 +/- 9.2 mg/dl); assay type: functional
# [14] = system: Rattus norvegicus; assay: Toxicity in […] chronic ob/ob model assessed as serum creatinine level at 50 mg/kg, po qd for 31 days measured on day 32 (reference value: 0.55 +/- 0.018 mg/dl); assay type: organism-based; settings: in vivo, 744 h
# [15] = system: Rattus norvegicus; assay: Toxicity in Zucker rat sub-chronic fa/fa prediabetic model assessed as serum AST level at 10 mg/kg, po qd for 31 days measured on day 32 (reference value: 187 +/- 37 U/L); assay type: organism-based; settings: in vivo, 744 h
# [16] = Drug uptake in fat tissue of Zucker rat sub-chronic fa/fa prediabetic model at 12.5 mg/kg, po qd for 11 days; assay type: ADME, organism-based, Adipose tissue; settings: read-out: Drug uptake
# [17] = system: Rattus norvegicus; assay: Toxicity in […] model assessed as liver weight at 50 mg/kg, po qd for 31 days measured on day 32 (reference value: 2.77 +/- 0.16 g); assay type: organism-based; settings: in vivo, 744 h
# [18] = system: Rattus norvegicus; assay: Toxicity in Zucker rat sub-chronic fa/fa prediabetic model assessed as serum cholesterol level at 1 mg/kg, po qd for 31 days measured on day 32 (reference value: 295 +/- 91 mg/dl); assay type: organism-based; settings: in vivo, 744 h
# [19] = system: Rattus norvegicus; assay: Effect on PIK3CD gene expression in epididymal white adipose tissue of Zucker rat sub-chronic fa/fa prediabetic model at 10 mg/kg, po qd for 15 days by microarray analysis relative to control; assay type: functional
# [20] = system: Rattus norvegicus; assay: Effect on AGPAT3 gene expression in epididymal white adipose tissue of Zucker rat sub-chronic fa/fa prediabetic model at 10 mg/kg, po qd for 15 days by microarray analysis relative to control; assay type: functional
# [21] = system: Rattus norvegicus; assay: Effect on EIF2B3 gene expression in epididymal white adipose tissue of Zucker rat sub-chronic fa/fa prediabetic model at 10 mg/kg, po qd for 15 days by microarray analysis relative to control; assay type: functional
compound,measurement,setting,value
CN1CC[C@@H](N2C(=O)S/C(=C\c3ccc4c(cnn4Cc4ccc(Cl)cc4C(F)(F)F)c3)C2=O)[C@H](F)C1,AUC(0-t) at 24 h,[1],1760 ng·h/mL
same,Activity,[2],197 mg/dL
same,Tmax,[3],1.5 h
same,Activity,[4],inactive
same,IC50,[5],> 10 µM
same,Cmax,[6],7660 ng/mL
same,Activity,[7],94 µg
same,fold change (FC),[8],-1.216
same,Activity,[9],111 U/L
same,Activity,[10],43.5 g
same,fold change (FC),[11],1.239
same,inhibition,[12],69%
same,Activity,[13],123 mg/dL
same,Activity,[14],0.43 mg/dL
same,Activity,[15],98 U/L
same,concentration at 264 h,[16],58100 ng/g
same,Activity,[17],2.61 g
same,Activity,[18],328 mg/dL
same,fold change (FC),[19],-1.312
same,fold change (FC),[20],-1.213
same,fold change (FC),[21],1.203
